These results are taken from patent US9416115B2, “Fused heterocyclic compounds as ion channel modulators” (Gilead Sciences, Inc., priority 2013, dated 2016).

Read-outs that look alike come from different tables or passages of the source.

Common to all, as to assay type: cell-based
One assay deals with hNav1.1 (SCN1A) (Homo sapiens, UniProt P35498). Kind of assay: Use-dependent inhibition of the CNS Nav1.1 sodium channel. To be noted: use-dependent block, 25 Hz, pulse 20, read-out: Nav1.1 UDB 25 Hz 10 uM. As for the experimental part: HEK-293 cells stably expressing wild-type (WT) hNav1.1 (SCN1A, NCBI# AB09354) were obtained from Millipore (Cat. # CYL3009) were used to record INa. Cells are maintained with standard tissue culture procedures and stable channel expression is maintained with 400 ug/mL G418 in the culture medium. Unless otherwise noted, all reagents are purchased from Sigma-Aldrich (St Louis, Mo., U.S.A.).
Assays measuring Use-Dependent Block (UDB) of Nav1.2 are performed on an automated electrophysiology platform, QPatch 16X or QPatch HT (Sophion Bioscience, Copenhagen, Denmark), using the whole cell patch clamp technique to measure currents through the cell membrane. Series resistance compensation is set to 100% and series resistance and whole-cell compensation are performed automatically. Currents stored in the Sophion Bioscience Oracle database (Sophion Bioscience, Copenhagen, Denmark). Analysis is performed using QPatch Assay software and data are compiled in Excel 2010 (Microsoft, Seattle, Wash., U.S.A.).
The internal (pipette) solution consists of (in mM) 105 CsF, 10 NaF, 20 CsCl, 2 EGTA, 10 HEPES, 10 Dextrose with a pH of 7.35 and osmolarity of 300 mOsmol/kg. The external (bath) solution contains in (mM): 145 NaCl, 4 KCl, 1.8 CaCl2, 1 MgCl2, 10 dextrose, 10 HEPES, with a pH of 7.35 and osmolarity of 310 mOsmol/kg. Experiments are carried out at 23-25° C.
Compound stocks are routinely made by the Gilead Sample Bank in vials to 10 mM in dimethyl sulfoxide (DMSO). In some cases, when compounds are not soluble in DMSO, they are made in 100% ethanol. Stocks are sonicated as necessary. […]
Cells are allowed to stabilize for 10 min after establishment of the whole-cell configuration before current is measured. The test compound is applied 2 times at 60 second intervals. After the second compound addition, a 200 second wait period was imposed to allow for equilibration. Leak currents are subtracted by using an online P/4 procedure and all currents are low-pass Bessel filtered at 5 kHz and digitized at […].
Use-dependent block of Nav1.2 peak current is measured during pulse number 20 of a voltage pulse train (0 mV, 20 ms, 20 pulses, 25 Hz) from a holding potential of −120 mV. Currents are normalized to the peak current recorded in response to the first pulse in each frequency train. The voltage protocol for UDB was performed in the absence and presence of compound and percentage inhibition was calculated with respect to the compound free condition. Results are presented as mean percentage inhibition and data analysis is performed using QPatch Assay Software 4.0, and Excel 2002 (Microsoft, Seattle, Wash., U.S.A.).

In assay [1] the target is T1, wild-type human cardiac sodium channel, hNav1.5 (Homo sapiens, UniProt Q14524). Kind of assay: Late INa screening assay (QPatch whole cell patch clamp, Tefluthrin-induced late current). Conditions: HEK293 hNav1.5, percent block of late INa. The protocol: (§1) The cardiac late sodium current (Late INa) and peak sodium current (Peak INa) assays are performed on an automated electrophysiology platform, QPatch 16X or QPatch HT (Sophion Bioscience, Copenhagen, Denmark) using the whole cell patch clamp technique to measure currents through the cell membrane. The assay uses an HEK293 (human embryonic kidney) cell line heterologously expressing the wild-type human cardiac sodium channel, hNav1.5, purchased from Millipore (Billerica, Mass.). No beta subunits were coexpressed with the Na channel alpha subunit. Cells are maintained with standard tissue culture procedures and stable channel expression is maintained with 400 μg/mL Geneticin in the culture medium. Experiments are carried out at 23-25° C.
(§2) For both the Late INa and Peak INa assays, series resistance compensation is set to 100% and series resistance and whole-cell compensation are performed automatically. Currents are digitized at 25 kHz and low-pass filtered at 5 kHz and stored in the Sophion Bioscience Oracle database (Sophion Bioscience, Copenhagen, Denmark). Analysis is performed using QPatch Assay software and data are compiled in Excel 2010 (Microsoft, Seattle, Wash., U.S.A.).
(§3) Compound stocks are routinely made by the Gilead Sample Bank in vials to 10 mM in dimethyl sulfoxide (DMSO). In some cases, when compounds are not soluble in DMSO, they are made in 100% ethanol. Stocks are sonicated as necessary. The extracellular solution for screening Late INa is composed of: 140 mM NaCl, 4 mM KCl, 1.8 mM CaCl2, 1 mM MgCl2, 10 mM HEPES and 10 mM Dextrose with pH adjusted to 7.35 using NaOH. The intracellular solution contains: 105 mM CsF, 20 mM CsCl, 10NaF, 2 mM EGTA, 10 mM HEPES and 10 mM Dextrose with pH adjusted to 7.35 with CsOH. Compounds are diluted in extracellular solution using a MicroLab Nimbus (Hamilton Robotics, Reno, Nev.) to between 0.3 and 3 μM in glass vials and transferred to glass well plates before robotic addition to the cells. The 0 mM Na extracellular solution (0Na-ECF) used at the end of each experiment for the Late INa and Peak INa assays to measure baseline current contains: 140 Choline-Cl; 4 mM KCl, 1.8 mM CaCl2; 1 mM MgCl2; 10 mM HEPES and 10 mM Dextrose with pH was adjusted to 7.35 with CsOH.
For the Late INa assay, sodium channels are activated every 10 seconds (0.1 Hz) by depolarizing the cell membrane to −20 mV for 250 milliseconds (ms) from a holding potential of −120 mV.
Compounds were tested to determine their activity in blocking the late sodium current. Late INa was generated by adding 10 μM Tefluthrin (pyrethroid) to the extracellular solution. For the purposes of the screening, Late INa is defined as the mean current between […] during the voltage step to −20 mV. After establishing the whole cell recording configuration, Late INa activator is added to each well 4 times over a 15 minute period so that the late component of the Na current reaches a stable value. Compounds were then added (typically at 0.3 or 1 μM), in the presence of the Late Na^+ activator, with 3 additions over the course of 5 minutes. Measurements were made at the end of exposure to the third compound addition and values were normalized to the current level when all Na^+ was removed from the extracellular solution after two additions of 0Na-ECF.
Results are reported as percent block of late INa and results were analyzed by incorporating rundown correction for the Late INa.
(Patch clamp records ionic current or voltage across a cell membrane.)

The target in assay [2] is T1, wild-type human cardiac sodium channel, hNav1.5. Briefly: Peak INa screening assay (tonic block and use-dependent block). As for the experimental part:
as §1, §2, §3
Compounds were evaluated for their effect Nav1.5 Peak INa. It is contemplated that the compounds of Formula I avoid significant block of peak INa. Since the peak INa in the cells used herein can be very large, introducing artifacts in the recording, the concentration of Na^+ in the bath can be reduced to 40 mM by isosmotic replacement of Na^+ with Choline (see below).
Tonic Block (TB) of Peak INa was measured using a voltage step to −20 mV from a holding potential of −100 mV at a low stimulation frequency of 0.1 Hz. Use-Dependent Block (UDB) of Peak INa was measured during pulse number 50 of a pulse train (−20 mV, 20 ms, 50 pulses, 3 Hz) from a holding potential of −100 mV.
The extracellular solution for screening Peak INa is composed of: 40 mM NaCl, 100 mM Choline-Cl, 4 mM KCl, 1.8 mM CaCl2, 1 mM MgCl2 10 mM HEPES and 10 mM Dextrose with pH adjusted to 7.35 using NaOH. The intracellular solution used for the Peak INa assay is the same as outlined for the Late INa assay (see above).
After establishing the whole cell recording configuration, channels were stimulated to open with low frequency (0.1 Hz) so that the recording can be monitored and the extent to which the recording has stabilized can be assessed.
The test compound is then applied at 1 or 3 μM and was added 2 times at 60 second intervals. After the second compound addition, a 200 second wait period was imposed to allow for equilibration. Voltage protocols for TB and UDB are were performed in the absence and presence of compound and TB and UDB are calculated with respect to the compound free condition. Both TB and UDB were analyzed by incorporating rundown correction for the peak INa.

Setting [3] is: tonic block of Peak INa, 0.1 Hz, holding -100 mV, read-out: Peak TB 3 uM.
[4] abbreviates: use-dependent block of Peak INa, 3 Hz, pulse 50, read-out: Peak UDB 3 Hz 3 uM.

T1 sequence (Q14524 whole entry): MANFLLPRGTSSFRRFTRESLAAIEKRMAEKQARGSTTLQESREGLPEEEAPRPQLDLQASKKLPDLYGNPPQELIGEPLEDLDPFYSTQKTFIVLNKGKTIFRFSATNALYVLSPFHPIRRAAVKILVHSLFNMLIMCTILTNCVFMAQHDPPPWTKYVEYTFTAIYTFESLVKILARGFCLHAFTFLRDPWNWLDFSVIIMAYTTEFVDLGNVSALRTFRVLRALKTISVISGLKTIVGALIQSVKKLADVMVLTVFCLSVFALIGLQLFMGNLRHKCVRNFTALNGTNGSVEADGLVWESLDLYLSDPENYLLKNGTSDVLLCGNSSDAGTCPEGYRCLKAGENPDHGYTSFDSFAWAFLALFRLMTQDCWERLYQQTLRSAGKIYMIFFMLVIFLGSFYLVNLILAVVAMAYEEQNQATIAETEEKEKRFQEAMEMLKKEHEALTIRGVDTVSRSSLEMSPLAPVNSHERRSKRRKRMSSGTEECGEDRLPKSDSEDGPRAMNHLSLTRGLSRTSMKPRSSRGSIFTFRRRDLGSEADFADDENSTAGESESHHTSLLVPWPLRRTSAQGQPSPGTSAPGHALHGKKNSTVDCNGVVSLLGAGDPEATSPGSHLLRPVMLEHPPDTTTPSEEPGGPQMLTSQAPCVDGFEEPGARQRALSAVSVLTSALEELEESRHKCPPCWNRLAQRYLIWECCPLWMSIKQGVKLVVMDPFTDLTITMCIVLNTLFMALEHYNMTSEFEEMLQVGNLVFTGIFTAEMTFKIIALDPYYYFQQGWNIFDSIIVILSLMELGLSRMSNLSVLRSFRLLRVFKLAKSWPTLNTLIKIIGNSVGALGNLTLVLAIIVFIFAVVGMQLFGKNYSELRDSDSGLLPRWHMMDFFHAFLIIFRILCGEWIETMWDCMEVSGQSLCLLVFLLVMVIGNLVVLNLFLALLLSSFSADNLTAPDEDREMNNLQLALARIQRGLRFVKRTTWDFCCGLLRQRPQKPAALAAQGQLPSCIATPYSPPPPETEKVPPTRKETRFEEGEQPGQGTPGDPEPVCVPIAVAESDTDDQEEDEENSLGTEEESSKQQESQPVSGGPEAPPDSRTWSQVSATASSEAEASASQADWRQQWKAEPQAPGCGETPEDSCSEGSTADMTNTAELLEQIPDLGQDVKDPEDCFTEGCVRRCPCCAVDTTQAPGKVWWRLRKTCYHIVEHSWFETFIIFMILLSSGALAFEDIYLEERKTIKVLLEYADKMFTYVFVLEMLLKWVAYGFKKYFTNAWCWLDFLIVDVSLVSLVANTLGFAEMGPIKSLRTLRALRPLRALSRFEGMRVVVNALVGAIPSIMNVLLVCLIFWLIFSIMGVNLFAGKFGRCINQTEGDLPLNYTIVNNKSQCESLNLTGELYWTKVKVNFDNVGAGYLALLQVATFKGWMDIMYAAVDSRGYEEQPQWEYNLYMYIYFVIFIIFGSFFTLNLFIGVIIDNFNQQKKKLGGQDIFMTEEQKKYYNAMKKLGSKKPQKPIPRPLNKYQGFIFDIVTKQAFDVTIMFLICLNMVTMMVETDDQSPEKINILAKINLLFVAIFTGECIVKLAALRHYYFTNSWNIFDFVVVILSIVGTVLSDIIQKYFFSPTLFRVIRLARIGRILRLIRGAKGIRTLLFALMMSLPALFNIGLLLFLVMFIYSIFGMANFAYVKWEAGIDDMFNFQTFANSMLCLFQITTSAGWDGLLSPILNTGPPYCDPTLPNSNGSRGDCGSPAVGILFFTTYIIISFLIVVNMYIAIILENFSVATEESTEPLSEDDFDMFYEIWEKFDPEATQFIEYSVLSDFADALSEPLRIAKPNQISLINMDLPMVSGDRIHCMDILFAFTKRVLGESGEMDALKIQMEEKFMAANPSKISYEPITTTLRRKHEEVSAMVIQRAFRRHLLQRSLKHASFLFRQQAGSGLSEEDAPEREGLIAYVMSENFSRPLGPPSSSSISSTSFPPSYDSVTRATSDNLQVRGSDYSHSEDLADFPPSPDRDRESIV

On to `FC(F)(F)Oc1ccc(-c2ccc3onc(OC[C@@H]4CCCN4)c3c2)cc1` [Example 108, (S)-3-(pyrrolidin-2-ylmethoxy)-5-(4-(trifluoromethoxy)phenyl)benzo[d]isoxazole], for which the inhibition at 10 µM on hNav1.1 (SCN1A) was 89.2%. In assay [1], this compound yielded an inhibition at 0.3 µM of 30.1% and an inhibition at 1 µM of 83.5%. Besides, the inhibition at 3 µM in assay [2] (setting [3]) was 62.6%. Further, in assay [2] (setting [4]), the inhibition at 3 µM worked out at 69.3%.

As for `O=C1CC(COc2noc3ccc(-c4ccc(OC(F)(F)F)cc4)cc23)CN1` (stereo not drawn) [Example 46, 4-(((5-(4-(trifluoromethoxy)phenyl)benzo[d]isoxazol-3-yl)oxy)methyl)pyrrolidin-2-one], the inhibition at 10 µM on hNav1.1 (SCN1A) was found to be 78.4%. Besides, in assay [1], the inhibition at 1 µM came to 36.8%. In addition, the inhibition at 3 µM in assay [2] (setting [3]) worked out at 23.7%; in assay [2] (setting [4]), 13.9%.

With `Cc1cc(-c2ccc(OC(F)(F)F)cc2)cc2c(OCCN3CCCC3=O)noc12` [Example 88, 1-(2-((7-methyl-5-(4-(trifluoromethoxy)phenyl)benzo[d]isoxazol-3-yl)oxy)ethyl)pyrrolidin-2-one], on hNav1.1 (SCN1A), the inhibition at 10 µM came out at 66.7%. In assay [1], this compound registered an inhibition at 1 µM of 47.7%. In addition, the inhibition at 3 µM is 20.8% in assay [2] (setting [3]) and 19.5% in assay [2] (setting [4]).

Turning to `CN1CC(COc2noc3ccc(-c4ccc(OC(F)(F)F)cc4)cc23)CC1=O` (stereo not drawn) [Example 56, 1-methyl-4-(((5-(4-(trifluoromethoxy)phenyl)benzo[d]isoxazol-3-yl)oxy)methyl)pyrrolidin-2-one], the inhibition at 10 µM on hNav1.1 (SCN1A) is 83.6%. Also, in assay [1], the inhibition at 0.3 µM was 16.1%. Moreover, the inhibition at 1 µM in assay [1] worked out at 57.8%. For the same compound, the inhibition at 3 µM in assay [2] (setting [3]) is 30.4%; in assay [2] (setting [4]), 31.4%.

As to `FC(F)(F)Oc1ccc(-c2ccc3onc(Oc4ccccn4)c3c2)cc1` [Example 125, 3-(pyridin-2-yloxy)-5-(4-(trifluoromethoxy)phenyl)benzo[d]isoxazole], the inhibition at 10 µM at hNav1.1 (SCN1A) is < 5%. The inhibition at 1 µM in assay [1] worked out at 41.8%.

As for `FC(F)(F)Oc1ccc(-c2ccc3onc(OCCn4ccnc4)c3c2)cc1` [Example 55, 3-(2-(1H-imidazol-1-yl)ethoxy)-5-(4-(trifluoromethoxy)phenyl)benzo[d]isoxazole], the inhibition at 10 µM on hNav1.1 (SCN1A) was 79.8%. The compound also gave an inhibition at 0.3 µM in assay [1] of 45.4%. The same compound gave an inhibition at 1 µM in assay [1] of 59.9%. The figures for the inhibition at 3 µM in assay [2] (setting [3]) and in assay [2] (setting [4]) were 15.1% and 5.13%, respectively.

Turning to `Cc1cccc(CNc2noc3ccc(-c4ccc(OC(F)(F)F)cc4)cc23)n1` [Example 129, N-((6-methylpyridin-2-yl)methyl)-5-(4-(trifluoromethoxy)phenyl)benzo[d]isoxazol-3-amine], the inhibition at 10 µM on hNav1.1 (SCN1A) came to 33.5%. In assay [1], the inhibition at 0.3 µM is 34.3% and the inhibition at 1 µM came out at 67.5%.

With `Cc1nccn1CCOc1noc2ccc(-c3ccc(OC(F)(F)F)cc3)cc12` [Example 57, 3-(2-(2-methyl-1H-imidazol-1-yl)ethoxy)-5-(4-(trifluoromethoxy)phenyl)benzo[d]isoxazole], the inhibition at 10 µM at hNav1.1 (SCN1A) came to 82.5%. In assay [1], this compound displayed an inhibition at 0.3 µM of 17% and an inhibition at 1 µM of 57.3%. Further, the inhibition at 3 µM in assay [2] (setting [3]) is 22.1%. Further, the inhibition at 3 µM in assay [2] (setting [4]) was 37.1%.
